Measured values published in PMC2229574 (The Journal of General Physiology, 2003).
Values joined by “and” are separate entries in the source; they are usually repeats but may differ in a detail not shown here. Equal entries are not always repeated. Where two headings read alike, the source gives them in different places.

Tests used:
[1] = target: mouse AChR αD97H (Mus musculus, UniProt P02716+P04756+P20782, D117H); experiment: cell-based
[2] = test system: hybrid AChR (one wild-type α-subunit and one D97A α-subunit), hybrid 1; conditions: 20 mM choline
[3] = target: mouse AChR δ-subunit N98V (Mus musculus, UniProt P02716+P04756+P20782, N122V); conditions: 20 mM choline
[4] = target: wild-type mouse AChR (α2βδɛ) (Mus musculus, UniProt P02716+P04756+P20782); conditions: wt; for L2: choline (Table III / text)
[5] = target: mouse AChR δ-subunit N98A (Mus musculus, UniProt P02716+P04756+P20782, N122A); conditions: 20 mM choline
[6] = target: mouse AChR δ-subunit D99V (Mus musculus, UniProt P02716+P04756+P20782, D123V); conditions: 20 mM choline
[7] = target: mouse AChR β-subunit D97A (Mus musculus, UniProt P02716+P04756+P09690+P20782, D120A); conditions: 20 mM choline
[8] = target: mouse AChR αD97M (Mus musculus, UniProt P02716+P04756+P20782, D117M)
[9] = target: mouse AChR δ-subunit D99A (Mus musculus, UniProt P02716+P04756+P20782, D123A); conditions: 20 mM choline
[10] = target: mouse AChR αD97P (Mus musculus, UniProt P02716+P04756+P20782, D117P); conditions: for α2 (diliganded channel closing rate constant): 0.4 mM choline; for β2 (diliganded channel opening rate constant): 20 mM choline; for L2 (diliganded gating equilibrium constant, β2/α2) / L2-ratio (mut/wt): choline
[11] = target: mouse AChR αD97R (Mus musculus, UniProt P02716+P04756+P20782, D117R)
[12] = target: mouse AChR αD97N (Mus musculus, UniProt P02716+P04756+P20782, D117N)
[13] = target: mouse AChR αD97C (Mus musculus, UniProt P02716+P04756+P20782, D117C)
[14] = target: mouse AChR αD97I (Mus musculus, UniProt P02716+P04756+P20782, D117I)
[15] = target: mouse AChR αD97Y (Mus musculus, UniProt P02716+P04756+P20782, D117Y)
[16] = test system: hybrid AChR (one wild-type α-subunit and one D97A α-subunit), hybrid 2; conditions: 20 mM choline
[17] = target: mouse AChR αD97E (Mus musculus, UniProt P02716+P04756+P20782, D117E); experiment: cell-based
[18] = read-out: k+ (association rate constant, single TBS)
[19] = read-out: k− (dissociation rate constant, single TBS)

mouse AChR αD97P, sequence (P04756 21-457 D117P): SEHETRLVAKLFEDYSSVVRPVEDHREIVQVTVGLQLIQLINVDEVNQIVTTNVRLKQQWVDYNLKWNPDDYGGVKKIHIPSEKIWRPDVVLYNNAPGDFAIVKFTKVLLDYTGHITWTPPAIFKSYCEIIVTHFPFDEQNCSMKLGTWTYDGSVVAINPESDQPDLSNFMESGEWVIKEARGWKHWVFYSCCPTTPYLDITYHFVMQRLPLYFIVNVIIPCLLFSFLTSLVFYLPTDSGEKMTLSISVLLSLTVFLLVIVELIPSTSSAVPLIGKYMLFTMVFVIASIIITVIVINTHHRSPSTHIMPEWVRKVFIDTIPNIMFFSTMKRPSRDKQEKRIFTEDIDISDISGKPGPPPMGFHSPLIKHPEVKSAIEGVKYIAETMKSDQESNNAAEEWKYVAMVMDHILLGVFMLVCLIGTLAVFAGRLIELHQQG
mouse AChR αD97P, sequence (P09690 24-501 partner): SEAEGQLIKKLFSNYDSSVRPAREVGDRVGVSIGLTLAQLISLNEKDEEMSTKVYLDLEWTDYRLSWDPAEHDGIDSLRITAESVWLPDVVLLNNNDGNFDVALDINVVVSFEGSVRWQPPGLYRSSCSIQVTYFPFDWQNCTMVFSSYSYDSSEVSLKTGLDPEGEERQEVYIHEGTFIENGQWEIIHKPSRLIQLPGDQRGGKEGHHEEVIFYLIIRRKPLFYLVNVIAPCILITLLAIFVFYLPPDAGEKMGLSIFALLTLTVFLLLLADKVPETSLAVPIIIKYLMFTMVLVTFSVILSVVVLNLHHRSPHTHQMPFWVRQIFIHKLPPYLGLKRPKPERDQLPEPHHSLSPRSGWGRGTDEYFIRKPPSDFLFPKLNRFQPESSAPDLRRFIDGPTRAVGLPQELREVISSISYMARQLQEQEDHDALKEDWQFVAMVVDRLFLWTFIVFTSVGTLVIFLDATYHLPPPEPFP
mouse AChR αD97P, sequence (P02716 25-520): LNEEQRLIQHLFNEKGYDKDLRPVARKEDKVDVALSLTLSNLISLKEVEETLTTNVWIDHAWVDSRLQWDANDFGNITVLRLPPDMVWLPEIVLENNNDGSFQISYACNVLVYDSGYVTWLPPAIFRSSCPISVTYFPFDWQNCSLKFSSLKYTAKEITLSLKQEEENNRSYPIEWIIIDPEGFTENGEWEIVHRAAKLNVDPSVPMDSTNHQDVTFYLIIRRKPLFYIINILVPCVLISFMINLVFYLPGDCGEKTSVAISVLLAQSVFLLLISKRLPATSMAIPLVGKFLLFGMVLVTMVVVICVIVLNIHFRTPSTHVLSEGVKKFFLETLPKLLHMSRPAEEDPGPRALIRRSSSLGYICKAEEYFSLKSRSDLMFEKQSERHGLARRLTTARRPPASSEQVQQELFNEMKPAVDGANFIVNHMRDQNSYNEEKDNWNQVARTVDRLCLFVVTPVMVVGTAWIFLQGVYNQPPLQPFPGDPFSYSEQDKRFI
mouse AChR αD97P, sequence (P20782 21-493, stated change not applied): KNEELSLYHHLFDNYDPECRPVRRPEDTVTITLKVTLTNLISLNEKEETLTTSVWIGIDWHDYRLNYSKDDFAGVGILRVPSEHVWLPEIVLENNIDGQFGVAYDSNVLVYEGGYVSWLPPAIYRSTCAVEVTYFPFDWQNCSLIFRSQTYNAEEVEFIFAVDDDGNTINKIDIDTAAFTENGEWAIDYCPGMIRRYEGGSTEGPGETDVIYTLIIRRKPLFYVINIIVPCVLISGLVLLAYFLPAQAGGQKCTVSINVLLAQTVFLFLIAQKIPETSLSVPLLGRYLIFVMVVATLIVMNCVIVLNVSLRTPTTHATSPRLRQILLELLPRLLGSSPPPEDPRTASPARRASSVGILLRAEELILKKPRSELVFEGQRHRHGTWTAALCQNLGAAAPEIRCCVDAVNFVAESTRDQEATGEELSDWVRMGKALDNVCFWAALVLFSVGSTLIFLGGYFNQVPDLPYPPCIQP
mouse AChR αD97H, sequence (P04756 21-457 D117H): as the sequence (P04756 21-457 D117P) above, with P97H counted along it
mouse AChR αD97H, sequence (P09690 24-501 partner): as the sequence (P09690 24-501 partner) above
mouse AChR αD97H, sequence (P02716 25-520): as the sequence (P02716 25-520) above
mouse AChR αD97H, sequence (P20782 21-493, stated change not applied): as the sequence (P20782 21-493, stated change not applied) above

- Kd ([1]; Kd (k−/k+), αD97H, choline, kinetic modeling, Scheme I): 2.8 mM and 2.84 mM
- kon [1, 18]: 1.06e+06 M⁻¹ s⁻¹
- koff [1, 19]: 2990 s⁻¹
- α2* (apparent channel closing rate constant) [3]: 437 s⁻¹
- β2 (channel opening rate constant) [3]: 62 s⁻¹
- β2 (channel opening rate constant) ([4]; 20 mM choline (Table VIII)): 100 s⁻¹
- α2* (apparent channel closing rate constant) ([4]; 20 mM choline, ∼2-fold smaller than α2 because of channel block): 1,100 s^−1
- β2 ([4]; choline (Table III / Fig. 4)): 100 s⁻¹
- L2 [4]: 0.05
- L2 ([4]; listed as Choline): 0.047
- α2 ([4]; choline (Table III)): 2,100 s^−1
- α2* (apparent channel closing rate constant) [5]: 1,335 s^−1
- β2 (channel opening rate constant) [5]: 36 s⁻¹
- α2* (apparent channel closing rate constant) [6]: 561 s⁻¹
- β2 (channel opening rate constant) [6]: 117 s⁻¹
- α2* (apparent channel closing rate constant) [7]: 1,320 s^−1
- β2 (channel opening rate constant) [7]: 72 s⁻¹
- L2-ratio (mut/wt) ([8]; choline): 7.78
- α2* (apparent channel closing rate constant) [9]: 630 s⁻¹
- β2 (channel opening rate constant) [9]: 146 s⁻¹
- L2-ratio (mut/wt) ([10]; αD97P kinetic mode P1): 2.97
- L2-ratio (mut/wt) ([10]; αD97P kinetic mode P2): 12.88
- L2-ratio (mut/wt) ([11]; choline): 139.12
- L2-ratio (mut/wt) ([12]; choline): 2.37
- L2-ratio (mut/wt) ([13]; choline): 5.13
- L2-ratio (mut/wt) ([14]; choline): 0.45
- L2-ratio (mut/wt) ([15]; choline): 14.72
- Kd ([17]; Kd (k−/k+), αD97E, choline, kinetic modeling, Scheme I): 2.1 mM and 2.14 mM
- kon [17, 18]: 2.84e+06 M⁻¹ s⁻¹
- koff [17, 19]: 6070 s⁻¹
SMILES: C[N+](C)(C)CCO [choline]
- ΔΔG0 for channel gating, 0.59 ln(L2^wt/L2^mut) [2]: 1.96 kcal mol^−1
- α2 (diliganded channel closing rate constant) ([4]; 0.4 mM choline): 2,100 s^−1
- β2 (diliganded channel opening rate constant) ([4]; 20 mM choline): 100 s⁻¹
- L2 (diliganded gating equilibrium constant, β2/α2) ([4]; choline): 0.048
- α2 (diliganded channel closing rate constant) ([8]; 0.4 mM choline): 2,255 s^−1
- β2 (diliganded channel opening rate constant) ([8]; 20 mM choline): 835 s⁻¹
- L2 (diliganded gating equilibrium constant, β2/α2) ([8]; choline): 0.370
- α2 (diliganded channel closing rate constant) ([10]; αD97P kinetic mode P1): 2,276 s^−1
- β2 (diliganded channel opening rate constant) ([10]; αD97P kinetic mode P1): 322 s⁻¹
- L2 (diliganded gating equilibrium constant, β2/α2) ([10]; αD97P kinetic mode P1): 0.141
- α2 (diliganded channel closing rate constant) ([10]; αD97P kinetic mode P2): 2,276 s^−1
- β2 (diliganded channel opening rate constant) ([10]; αD97P kinetic mode P2): 1,396 s^−1
- L2 (diliganded gating equilibrium constant, β2/α2) ([10]; αD97P kinetic mode P2): 0.613
- α2 (diliganded channel closing rate constant) ([11]; 0.4 mM choline): 1,653 s^−1
- β2 (diliganded channel opening rate constant) ([11]; 20 mM choline): 10,951 s^−1
- L2 (diliganded gating equilibrium constant, β2/α2) ([11]; choline): 6.624
- α2 (diliganded channel closing rate constant) ([12]; 0.4 mM choline): 2,379 s^−1
- β2 (diliganded channel opening rate constant) ([12]; 20 mM choline): 268 s⁻¹
- L2 (diliganded gating equilibrium constant, β2/α2) ([12]; choline): 0.113
- α2 (diliganded channel closing rate constant) ([13]; 0.4 mM choline): 2,172 s^−1
- β2 (diliganded channel opening rate constant) ([13]; 20 mM choline): 531 s⁻¹
- L2 (diliganded gating equilibrium constant, β2/α2) ([13]; choline): 0.244
- α2 (diliganded channel closing rate constant) ([14]; 0.4 mM choline): 2,801 s^−1
- β2 (diliganded channel opening rate constant) ([14]; 20 mM choline): 60 s⁻¹
- L2 (diliganded gating equilibrium constant, β2/α2) ([14]; choline): 0.022
- α2 (diliganded channel closing rate constant) ([15]; 0.4 mM choline): 1,992 s^−1
- β2 (diliganded channel opening rate constant) ([15]; 20 mM choline): 1,396 s^−1
- L2 (diliganded gating equilibrium constant, β2/α2) ([15]; choline): 0.701
- ΔΔG0 for channel gating, 0.59 ln(L2^wt/L2^mut) [16]: 0.95 kcal mol^−1
